Bounds are passed on as bounds.

This test addresses T1, recombinant human mPGES-1 (Homo sapiens, UniProt O14684).
T1 construct: made in house; host or cells: Rosetta E. coli (membrane/microsome fraction)
T1 sequence (O14684 1-152): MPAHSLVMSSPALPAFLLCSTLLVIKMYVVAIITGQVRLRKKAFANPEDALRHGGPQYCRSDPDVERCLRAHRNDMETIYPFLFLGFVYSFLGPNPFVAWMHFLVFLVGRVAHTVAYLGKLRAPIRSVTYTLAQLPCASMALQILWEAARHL
In words: Assay A: mPGES-1 enzyme assay (HTRF detection of PGE2). The format is biochemical. As to conditions: biological assay A; microsomes from E. coli expressing recombinant human mPGES-1; read-out: mPGES-1 inhibitory effect IC50. From the text:
The aim of this assay is to determine the affinity of a test compound for the mPGES-1 enzyme.
• 1. Riendeau, D., R. Aspiotis, D. Ethier, Y. Gareau, E. Grimm, J. Guay, S. Guiral, H. Juteau, J. Mancini, N. Methot, J. Rubin, and R. Friesen, Inhibitors of the inducible microsomal prostaglandin E2 synthase (mPGES-1) derived from MK-886. Bioorg Med Chem Lett, 2005. 15(14): p. 3352-3355. • 2. Cote, B., L. Boulet, C. Brideau, D. Claveau, D. Ethier, R. Frenette, M. Gagnon, A. Giroux, J. Guay, S. Guiral, J. Mancini, E. Martins, F. Masse, N. Methot, D. Riendeau, J. Rubin, D. Xu, H. Yu, Y. Ducharme, and R. Friesen, Substituted phenanthrene imidazoles as potent, selective, and orally active mPGES-1 inhibitors. Bioorg Med Chem Lett, 2007. 17(24): p. 6816-6820. Assay A: mPGES-1 Enzyme Assay List of Reagents Used: • Glutathione (Sigma, G-4251) • Freeze culture in Rosetta E coli expression strain. • LB growth media with Ampillicillin (Amp) final concentration in culture 50 μg/mL • Chloroamphenicol stock 34 mg/mL (chloro) final concentration in culture 34 μg/mL • Sterile growth flasks for 500 mL-1 liter cultures • 0.1 M KP, buffer pH 7.4 • 9.25% HCl • PGH2 (0.25 mM) • Fe (II) Cl2 tetrahydrate, 99% (Sigma, 220229) • 384-well plate with compounds • 96-well plate, polypropylene (Thermo fast 96 skirted VWR) • 384-well plate polypropylene PCR plate (Greiner 785201) • Greiner 384-well plate pp (In vitro cat. no. 781280) • Adhesive sealing film for 96-well plates (Sigma-Aldrich) • Aluminium foil (PCR foil, 310-0030-127-471 from Labora) • PBS (GIBCO 14040) • Prostaglandin E2 Assay (Cisbio, cat. no. 62P2APEC) • Biomek FX robot (Beckman Coulter) • Biomek NX robot (Beckman Coulter) • Multidrop; micro or combi (ThermoLabsystems) • Plate reader: Safire2 (Tecan)
Microsomes from Rosetta E. coli bacteria expressing recombinant human mPGES-1 can be derived as described below:
Inoculate 5 mL LB with Amp and Chloro with bacteria from freeze culture. Incubate overnight at 37° C. with 200 rpm. Thereafter, inoculate 500-800 mL LB containing Amp and Chloro with the 5 mL on culture and grow to OD640 of 0.6-0.8. Chill the culture to +4° C. before induction. Induce the culture with IPTG at a final concentration of 400 μM. Express the protein at room temp 18-23° C. with 200 rpm shaking overnight.
The following steps can be performed on the following day: • 1. Spin down the cells in 250 mL centrifuge flasks for 15 min at 7000 rpm • 2. Dissolve the pellet from 250 mL culture in 12.5 mL homogenization buffer • 3. Disintegrate the cells by sonication, 4×10 seconds at 35% amplitude • 4. Add 2.5 mL MgCl2 (100 mM) and DNase 12.5 μL (0.8 mg/mL) and incubate on ice for 30 min • 5. Spin down the bacteria debris and save the supernatant, 7000 rpm for 15 min • 6. Isolate the protein containing membranes in the supernatant by ultracentrifugation 45000×g for 1 hour. • 7. Discard the supernatant and dissolve the pellet in 20 mM KPi buffer and aliquot the enzyme and store aliquots at −80° C.
Before each experiment is performed an aliquot of the enzyme is thawed and it can then be dissolved in 0.1 M KP, pH 7.4 buffer containing 2.5 mM GSH. 50 μL of this enzyme solution is subsequently dispensed in a 384-well plate at room temperature. 0.5 μL of the inhibitor dissolved in DMSO is thereafter added to each well and incubated for 25 minutes at room temperature. Subsequently, 2 μL of PGH2 dissolved in an appropriate solvent is added to each well and after one minute at room temperature, the acidified stop solution containing FeCl2 is added. 4 μL of the total volume is transferred to a separate plate and diluted 750-fold in two separate steps before quantification of PGE2.
In order to quantitate the amount of PGE2 that has been formed, a homogenous time resolved fluorescent (HTRF) detection of PGE2 can be performed by the use of a commercially available kit from CisBio essentially according to the manufacturer's protocol. […]
Consider `Cn1c(Nc2cc(CNC(=O)C(C)(C)C)ccc2C(F)(F)F)nc2cc(Cl)c(N3CCC(C(F)(F)F)CC3)cc21` [Example 104], for which the IC50 worked out at 2.4 nM.
For `CC(C(=O)NCc1ccc(C(F)(F)F)c(Nc2nc3cc(Cl)c(N4CCC(C(F)(F)F)CC4)cc3n2C)c1)C(F)(F)F` (centres unmarked) [Example 105, N-{4-Trifluoromethyl-3-[5-chloro-1-methyl-6-(4-trifluoromethyl-piperidin-1-yl)-1H-benzimidazol-2-ylamino]-benzyl}-3,3,3-trifluoro-2-methyl-propanamide] the value was 3.9 nM.
With `Cn1c(Nc2cc(CNC(=O)C(C)(F)F)ccc2C(F)(F)F)nc2cc(Cl)c(N3CCC(C(F)(F)F)CC3)cc21` [Example 106], the IC50 came out at 5.7 nM.
As for `Cn1c(Nc2cc(CNC(=O)C3(O)CC3)ccc2C(F)(F)F)nc2cc(Cl)c(N3CCC(C(F)(F)F)CC3)cc21` [Example 107], the IC50 is 13 nM.
For the compound `Cn1c(Nc2cc(CNC(=O)C(C)(N)C(F)(F)F)ccc2C(F)(F)F)nc2cc(Cl)c(N3CCC(C(F)(F)F)CC3)cc21` (centres unmarked) [Example 108], the IC50 turned out to be 5.8 nM.
For `Cn1c(Nc2cc(CN[S+]([O-])C(C)(C)C)ccc2C(F)(F)F)nc2cc(Cl)c(N3CCC(C(F)(F)F)CC3)cc21` (centres unmarked) [Example 109, N-(4-Trifluoromethyl-3-(5-chloro-1-methyl-6-(4-trifluoromethyl-piperidin-1-yl)-1H-benzo[d]imidazol-2-ylamino)benzyl)-2-methylpropane-2-sulfinamide] the value was 5.2 nM; for `Cn1c(Nc2cc(CNS(=O)(=O)C(C)(C)C)ccc2C(F)(F)F)nc2cc(Cl)c(N3CCC(C(F)(F)F)CC3)cc21` [Example 110, N-(4-Trifluoromethyl-3-(5-chloro-1-methyl-6-(4-trifluoromethyl-piperidin-1-yl)-1H-benzo[d]imidazol-2-ylamino)benzyl)-2-methylpropane-2-sulfonamide], 1.5 nM; for `Cn1c(Nc2cc(CNC(=O)C3(C(F)(F)F)CC3)ccc2F)nc2cc(Cl)c(N3CCC(C(F)(F)F)CC3)cc21` [Example 111, N-{4-Fluoro-3-[5-chloro-1-methyl-6-(4-trifluoromethyl-piperidin-1-yl)-1H-benzimidazol-2-ylamino]-benzyl}-1-trifluoromethyl-cyclopropanamide], 19 nM.
With `Cn1c(Nc2cc(CNC(=O)C3(C(F)(F)F)CC3)ccc2F)nc2cc(Cl)c(N3CCC(F)(F)CC3)cc21` [Example 112], the IC50 worked out at 22 nM.
`Cn1c(Nc2cc(CNC(=O)C3(C(F)(F)F)CC3)ccc2F)nc2cc(C#N)c(N3CCC(C(F)(F)F)CC3)cc21` [Example 113]: the IC50 turned out to be 11 nM.
For `Cn1c(Nc2cc(CNC(=O)C3(C(F)(F)F)CC3)c(F)cc2Cl)nc2cc(Cl)c(N3CCC(C(F)(F)F)CC3)cc21` [Example 114, N-{4-Chloro-2-fluoro-5-[5-chloro-1-methyl-6-(4-trifluoromethyl-piperidin-1-yl)-1H-benzimidazol-2-ylamino]-benzyl}-1-trifluoromethyl-cyclopropanamide] the value was 4.8 nM; for `Cn1c(Nc2cc(CNC(=O)C3(C(F)(F)F)CC3)c(F)cc2Cl)nc2cc(Cl)c(N3CCC(C)(C)CC3)cc21` [Example 115], 9.2 nM; for `Cn1c(Nc2cc(CNC(=O)C3(C(F)(F)F)CC3)cc(F)c2Cl)nc2cc(Cl)c(N3CCC(C(F)(F)F)CC3)cc21` [Example 116, N-{4-Chloro-5-fluoro-3-[5-chloro-1-methyl-6-(4-trifluoromethyl-piperidin-1-yl)-1H-benzimidazol-2-ylamino]-benzyl}-1-trifluoromethyl-cyclopropanamide], 5.9 nM.
For `CC(C)(C)C(=O)NCc1ccc(OC(F)(F)F)c(Nc2nc3cc(C#N)c(N4CCCC(C(F)(F)F)C4)cc3[nH]2)c1` (centres unmarked) [Example 117, N-{3-(5-Cyano-6-[3-trifluoromethyl-piperidin-1-yl)-1H-benzo[d]imidazol-2-ylamino]-4-trifluoromethoxy-benzyl}-2,2-dimethyl-propionamide] the value was 120 nM.
Turning to `CC1(C(=O)NCc2ccc(Cl)c(Nc3nc4ccc(N5CCCC5)cc4[nH]3)c2)CCCCC1` [Example 118], the IC50 was 53 nM.
As to `CC1(C(=O)NCc2ccc(Cl)c(Nc3nc4ccc(N5CCOCC5)cc4[nH]3)c2)CCCCC1` [Example 119], the IC50 was over 100 nM.
For `CN1CCN(c2cc3[nH]c(Nc4cc(CNC(=O)C5(C)CCCCC5)ccc4Cl)nc3cc2Cl)CC1` [Example 120] the value was 266 nM; for `CC1(C(=O)NCc2ccc(Cl)c(Nc3nc4cc(Cl)c(N5CCOCC5)cc4[nH]3)c2)CCCCC1` [Example 121], 60 nM.
Take `COC[C@@H]1CCCN1c1cc2[nH]c(Nc3cc(CNC(=O)C4(C)CCCCC4)ccc3Cl)nc2cc1Cl` [Example 122]: the IC50 is 7.9 nM.
For `Cn1c(Nc2cc(CNC(=O)C3(C)CCCCC3)ccc2Cl)nc2ccc(N3CCCC3)cc21` [Example 123], the IC50 is 29 nM.
`Cn1c(Nc2cc(CNC(=O)C3(C(F)(F)F)CC3)ccc2Cl)nc2cc(Cl)c(N3CCCC(C(F)(F)F)C3)cc21` (centres unmarked) [Example 124]: the IC50 was determined as 2.6 nM.
On to `CC(C)N1CCN(c2cc3c(cc2Cl)nc(Nc2cc(CNC(=O)C4(C(F)(F)F)CC4)ccc2Cl)n3C)CC1` [Example 125], for which the IC50 turned out to be 32 nM.
In the case of `COC[C@@H]1CCCN1c1cc2c(cc1Cl)nc(Nc1cc(CNC(=O)C3(C(F)(F)F)CC3)ccc1Cl)n2C` [Example 126], the IC50 was found to be 6.7 nM.
For `N#Cc1cc2nc(Nc3cc(CNC(=O)C4(C(F)(F)F)CC4)ccc3Cl)[nH]c2cc1N1CCCC1` [Example 127] the value was 26 nM; for `O=C(NCc1ccc(Cl)c(Nc2nc3cc(Cl)c(N4CCOCC4)cc3[nH]2)c1)C1(C(F)(F)F)CC1` [Example 128], 172 nM.
For `CN1CCN(c2cc3[nH]c(Nc4cc(CNC(=O)C5(C(F)(F)F)CC5)ccc4Cl)nc3cc2Cl)CC1` [Example 129] the value was 634 nM.
For `N#Cc1cc2nc(Nc3cc(CNC(=O)C4(C(F)(F)F)CC4)ccc3Cl)[nH]c2cc1N1CCCC(C(F)(F)F)C1` (centres unmarked) [Example 130] the value was 15 nM; for `Cn1c(Nc2cc(CNC(=O)C3(C(F)(F)F)CC3)ccc2Cl)nc2ccc(N3CCCC3)cc21` [Example 132], 124 nM; for `COC[C@@H]1CCCN1c1cc2[nH]c(Nc3cc(CNC(=O)C4(C(F)(F)F)CC4)ccc3Cl)nc2cc1Cl` [Example 133, (S)—N-{4-Chloro-3-[5-chloro-6-(2-methoxymethyl-pyrrolidin-1-yl)-1H-benzo[d]imidazol-2-ylamino]benzyl}-1-trifluoromethyl-cyclopropanecarboxamide], 25 nM.
